The text below walks through data of patent US11524932B2, “Lipids for use in lipid nanoparticle formulations” (ACUITAS THERAPEUTICS, INC., priority 2017, dated 2022).

A short description of data set [1]: Determination of pKa of formulated lipids (TNS fluorescence assay in lipid nanoparticles). As to conditions: lipid formulated in LNP (lipid/DSPC/cholesterol/PEG-lipid); pH giving half-maximal TNS fluorescence. The data set is classed as physicochemical. An excerpt: As described elsewhere, the pKa of formulated lipids is correlated with the effectiveness of LNPs for delivery of nucleic acids (see Jayaraman et al, Angewandte Chemie, International Edition (2012), 51(34), 8529-8533; Semple et al, Nature Biotechnology 28, 172-176 (2010)). In some embodiments, the preferred range of pKa is ˜5 to ˜7. […] Lipid nanoparticles comprising compound of structure (I)/DSPC/cholesterol/PEG-lipid (50/10/38.5/1.5 or 47.5:10:40.8:1.7 mol %) in PBS at a concentration of 0.4 mM total lipid were prepared using the in-line process as described in Example 1. TNS was prepared as a 100 μM stock solution in distilled water. Vesicles were diluted to 24 μM lipid in 2 mL of buffered solutions containing 10 mM HEPES, 10 mM MES, 10 mM ammonium acetate, and 130 mM NaCl, where the pH ranged from 2.5 to 11. An aliquot of the TNS solution was added to give a final concentration of 1 μM and following vortex mixing fluorescence intensity was measured at room temperature in a SLM Aminco Series 2 Luminescence Spectrophotometer using excitation and emission wavelengths of 321 nm and 445 nm. A sigmoidal best fit analysis was applied to the fluorescence data and the pKa was measured as the pH giving rise to half-maximal fluorescence intensity.

Data set [2] deals with luciferase expression in the liver. The data set is described as follows: Luciferase mRNA in vivo evaluation using lipid nanoparticle compositions (liver luciferase expression). Set-up: species or system mice. To be noted: LNP with FLuc mRNA, tail vein injection, liver measured 4 hours after administration; for Liver Luc @ 0.5 mg/kg (ng luc/g liver): 0.5 mg mRNA/kg. Here is the method: A lipid of structure (I), DSPC, cholesterol and PEG-lipid were solubilized in ethanol at a molar ratio of 50:10:38.5:1.5 or 47.5:10:40.8:1.7. Lipid nanoparticles (LNP) were prepared at a total lipid to mRNA weight ratio of approximately 10:1 to 30:1. Briefly, the mRNA was diluted to 0.2 mg/mL in 10 to 50 mM citrate buffer, pH 4. Syringe pumps were used to mix the ethanolic lipid solution with the mRNA aqueous solution at a ratio of about 1:5 to 1:3 (vol/vol) with total flow rates above 15 mL/min. The ethanol was then removed and the external buffer replaced with PBS by dialysis. Finally, the lipid nanoparticles were filtered through a 0.2 μm pore sterile filter.
Studies were performed in 6-8 week old female C57BL/6 mice (Charles River) 8-10 week old CD-1 (Harlan) mice (Charles River) according to guidelines established by an institutional animal care committee (ACC) and the Canadian Council on Animal Care (CCAC). Varying doses of mRNA-lipid nanoparticle were systemically administered by tail vein injection and animals euthanized at a specific time point (e.g., 4 hours) post-administration. Liver and spleen were collected in pre-weighed tubes, weights determined, immediately snap frozen in liquid nitrogen and stored at −80° C. until processing for analysis.
For liver, approximately 50 mg was dissected for analyses in a 2 mL FastPrep tubes (MP Biomedicals, Solon Ohio). ¼″ ceramic sphere (MP Biomedicals) was added to each tube and 500 μL of Glo Lysis Buffer—GLB (Promega, Madison Wis.) equilibrated to room temperature was added to liver tissue. Liver tissues were homogenized with the FastPrep24 instrument (MP Biomedicals) at 2×6.0 m/s for 15 seconds. Homogenate was incubated at room temperature for 5 minutes prior to a 1:4 dilution in GLB and assessed using SteadyGlo Luciferase assay system (Promega). Specifically, 50 μL of diluted tissue homogenate was reacted with 50 μL of SteadyGlo substrate, shaken for 10 seconds followed by 5 minute incubation and then quantitated using a CentroXS^3 LB 960 luminometer (Berthold Technologies, Germany). The amount of protein assayed was determined by using the BCA protein assay kit (Pierce, Rockford, Ill.). Relative luminescence units (RLU) were then normalized to total μg protein assayed. To convert RLU to ng luciferase a standard curve was generated with QuantiLum Recombinant Luciferase (Promega). […]
Compounds of structure (I) were formulated using the following molar ratio: 47.5% cationic lipid/10% distearoylphosphatidylcholine (DSPC)/40.8% Cholesterol/1.7% PEG lipid (“PEG-DMA” 2-[2-(ω-methoxy (polyethyleneglycol2000)ethoxy]-N,N-ditetradecylacetamide). Relative activity was determined by measuring luciferase expression in the liver 4 hours following administration via tail vein injection as described in Example 1. […]

Consider `CCCCCCCCC(CCCCCC)COC(=O)CCCCCN(CCCCCC(=O)OCC(CCCCCC)CCCCCCCC)CCNCCCCCC(=O)OCC(CCCC)CCCCCC` (centres unmarked) [Compound 1], for which the pKa in data set [1] is 6.39. Besides, in data set [2] (footnote *: dosed at 0.3 mg/kg), the “Liver Luc (ng luc/g liver), dosed at 0.3 mg/kg” value is 1235 ± 345* ng luc/g liver.
On to `CCCCCCCCC(CCCCCC)COC(=O)CCCCCC(CCCCCC(=O)OCC(CCCCCC)CCCCCCCC)NCCCCCC(=O)OCC(CCCC)CCCCCC` (centres unmarked) [Compound 2], for which the pKa in data set [1] turned out to be 5.76. Also, the “Liver Luc @ 0.5 mg/kg (ng luc/g liver)” value in data set [2] turned out to be 29 ± 4 ng luc/g liver.
On the same counts, the results for `CCCCCCCCC(CCCCCC)COC(=O)CCCCCNCCN(CCCCCC(=O)OCC(CCCCCC)CCCCCCCC)CCCCCC(=O)OCC(CCCCCC)CCCCCCCC` (centres unmarked) [Compound 3] are 6.5 and 33 ± 1 ng luc/g liver.
On the same counts, the results for `CCCCCCCCC(CCCCCC)COC(=O)CCCCCC(CCCCCC(=O)OCC(CCCCCC)CCCCCCCC)NCCCCCC(=O)OCC(CC)CCCC` (centres unmarked) [Compound 4] are 6.11 and 102 ± 42 ng luc/g liver.

As a reminder, the pKa is the pH at which an ionisable group is half protonated.
